# Experiments:
# [1] = Acute toxicity of G 8 in the rabbit by esophageal administration; assay type: in vivo
# Description: (§1) Furthermore, G8 compound was tested for acute toxicity by several modes of administration in four species, namely mouse, rat, guinea pig and rabbit. […] The test results are given below in tables 1, 2, 3 and 4.
# Acute toxicity of G 8 in the rabbit by esophageal administration
# Treponema hyodysenteriae = assay: in vitro minimum inhibitory concentration / activity against Treponema hyodysenteriae; assay type: cell-based
# Description: Compound G 8 has been tested "in vitro" against Treponema hyodysenteriae by a known technique. The minimum inhibitory concentration (the lowest concentration of compound in a dilution series where growth is inhibited) was 0.1 μg/ml.
# [2] = growth promotion in baby-swines fed G 8 in rations; assay type: in vivo, swine
# Description: The effect of compound G 8 was tested in feed rations for baby-swines.
# Compound G 8 was added at a dosage level of 100 g/ton of feed. Five replicate groups of 10 animals (5 males and 5 females), age one day, were fed the ration containing G 8 and compared to 5 replicate groups of animals (5 males and 5 females) which received the same ration but without G 8.
# The test period was 28 days.
# [3] = Chronic toxicity in female mice; assay type: in vivo
# Source text: Chronic toxicity has been studied in female mice.
# [4] = Subacute toxicity of G 8 in the mouse; assay type: in vivo; details: for SGPT / SGOT: 1 g/kg/day, 24 hrs. after last dose
# Description: (§2) In view of the favorable acute toxicity data, compound G 8 was administered orally in sub-acute, but relatively large doses, to mice and rats for 15 days.
# Subacute toxicity of G 8 in the mouse
# Daily dose: 500 mg. G 8 by gastric gavage for 15 days
# Daily dose: 1 g/kg/day for 15 days
# b. SGOT and SGPT (24 hrs. after last dose)
# [5] = acute toxicity by several modes of administration in four species (overall); assay type: in vivo, guinea pig and rabbit; details: mouse, rat, guinea pig, rabbit
# Description: as §1
# [6] = teratogenetic study with male and female mice and rats; assay type: in vivo
# Description: Furthermore, teratogenetic study was conducted with male and female mice and rats.
# [7] = Acute toxicity of G 8 in the guinea pig by oral administration; assay type: in vivo
# Description: as §1
# Acute toxicity of G 8 in the guinea pig by oral administration
# [8] = Acute toxicity of G 8 in female mice; assay type: in vivo, mouse
# Description: as §1
# Acute toxicity of G 8 in female mice
# [9] = Acute Toxicity of G 8 in the Rat; assay type: in vivo; details: for Dead/Treated within 21 days / Body Weight (m ± SEM), Termination: first experiment
# Description: as §1
# Acute Toxicity of G 8 in the Rat
# swine dysentery = swine dysentery in swine herd fed G 8 in rations; assay type: in vivo; details: 400 g/ton in rations, herd with dysentery
# Description: Compound G 8 is mixed with swine feed rations at a level of 200 g/ton and was fed to swine housed in an area where there has been a previous outbreak of swine dysentery. Another herd was housed in a similar area, where there has been a previous outbreak of dysentery. They were fed the same rations as the first herd, but with no G 8 or other drug.
# Many members of the herd developed symptoms of dysentery. G 8 was then added with the rations at a level of 400 g/ton.
# [10] = Subacute toxicity of G 8 in female rats; assay type: in vivo, rat; details: 2 g/kg/day, gastric gavage, 21 days
# Description: as §2
# Subacute toxicity of G 8 in female rats
# Daily dose: […] of G 8 in female rats by gastric
# Daily dose: 2 g/kg/day of G 8 by gastric gavage for 21 days
structure (smiles),measurement,setting,value
"COc1ccc(O)c(C(O)c2c[n+]([O-])c3ccccc3[n+]2[O-])c1 (centres unmarked) [G 8, quinoxalyl-N^1,N^4-dioxide-2-hydroxy-5-methoxy-phenylcarbinol]",Dead/Treated within 7 days,[1]; 500 mg/kg,0/2
same,Dead/Treated within 7 days,[1]; 1000 mg/kg,0/4
same,"Body weight (m ± SE), Termination","[1]; 1000 mg/kg, start 2037 ± 104.3, vehicle 2135 ± 75 to 2262 ± 215",1922.5 ± 71.5 g
same,Dead/Treated within 7 days,[1]; 2000 mg/kg,0/2
same,"Body weight, Termination","[1]; 2000 mg/kg, start 2250-2150",2180 + 2140 g
same,action against Treponema hyodysenteriae (specificity),Treponema hyodysenteriae,clearly specific action against Treponema hyodysenteriae
same,MIC,"Treponema hyodysenteriae; Brachyspira hyodysenteriae, read-out: minimum inhibitory concentration",0.1 µg/mL
same,"Improvement, % (body weight gain)","[2]; 100 g/ton of feed, 28 days, combined average vs ration without G 8",3.1%
same,"Improvement, % (feed/gain ratio)","[2]; 100 g/ton of feed, 28 days, vs ration without G 8",2.8%
same,Feed/gain ratio,"[2]; 100 g/ton of feed, 28 days, without G 8: 1.82",1.77
same,"Body weight gain/swine, Females","[2]; 100 g/ton of feed, 28 days, without G 8: 5740 g",5880 g
same,"Body weight gain/swine, Combined average","[2]; 100 g/ton of feed, 28 days, without G 8: 6000",6190
same,"Body weight gain/swine, Males","[2]; 100 g/ton of feed, 28 days, without G 8: 6150 g",6480 g
same,growth promoting action,[2]; qualitative statement,effective growth promoting factor
same,Chronic toxicity,[3],very satisfactory
same,Dead/Treated,"[4]; 500 mg/kg/day, gastric gavage, 15 days",0/10
same,"Fresh organ to body weight ratio, Kidneys","[4]; 500 mg/kg/day, gastric gavage, 15 days, vehicle 1.4 ± 0.1",1.5 ± 0.1
same,"Fresh organ to body weight ratio, Liver","[4]; 500 mg/kg/day, gastric gavage, 15 days, vehicle 5.2 ± 0.2",5.9 ± 0.3
same,% Body weight change (m ± SE),"[4]; 500 mg/kg/day, gastric gavage, 15 days, vehicle 20.4 ± 4.2",-8.1 ± 3.9%
same,Dead/Treated,"[4]; 1 g/kg/day for 15 days, oral, in adraganth gum",3/12
same,% Body weight change,"[4]; 1 g/kg/day for 15 days, oral, in adraganth gum, vehicle 25.04 ± 1.18",16.27 ± 1.31%
same,Dead/Treated,"[4]; 1 g/kg/day for 15 days, oral, in water",2/12
same,% Body weight change,"[4]; 1 g/kg/day for 15 days, oral, in water, vehicle 24.54 ± 0.64",18.5 ± 0.75%
same,SGPT,"[4]; oral, in adraganth gum, vehicle 6",10 Units/ml
same,SGOT,"[4]; oral, in adraganth gum, vehicle 119",132 Units/ml
same,SGPT,"[4]; oral, in water, vehicle 4",9 Units/ml
same,SGOT,"[4]; oral, in water, vehicle 116",124 Units/ml
same,order of acute toxicity,[5],low order toxicity
same,order of acute toxicity,[5]; listed as G8,low order of toxicity
same,malformations,[6],No malformations in either group were observed
same,number of young delivered live at birth,[6],comparable with controls
same,Dead/Treated within 21 days,[7]; 500 mg/kg,0/4
same,Dead/Treated within 21 days,[7]; 1000 mg/kg,1/4
same,Dead/Treated within 21 days,[7]; 2000 mg/kg,5/6
same,Dead/Treated within 21 days,[7]; 4000 mg/kg,6/6
same,Dead/Treated animals,"[8]; endoperitoneal, 250 mg/kg, after 7 days",0/18
same,Dead/Treated animals,"[8]; endoperitoneal, 500 mg/kg, after 7 days",6/12
same,Dead/Treated animals,"[8]; endoperitoneal, 1000 mg/kg, after 2 days",6/6
same,Dead/Treated animals,"[8]; endoperitoneal, 1000 mg/kg, after 7 days",6/6
same,Dead/Treated animals,"[8]; endoperitoneal, 2000 mg/kg, after 1 day",6/6
same,Dead/Treated animals,"[8]; endoperitoneal, 2000 mg/kg, after 7 days",6/6
same,Dead/Treated animals,"[8]; oral, 1000 mg/kg, after 7 days",0/12
same,Dead/Treated animals,"[8]; oral, 2000 mg/kg, after 7 days",0/12
same,Dead/Treated animals,"[8]; oral, 4000 mg/kg, after 4 days",1/12
same,Dead/Treated animals,"[8]; oral, 4000 mg/kg, after 7 days",1/12
same,Dead/Treated within 7 days,"[9]; cumulative data regardless of animal sex, intraperitoneal, 500 mg/kg",4/16
same,Dead/Treated within 7 days,"[9]; cumulative data regardless of animal sex, oral, 4000 mg/kg",0/16
same,Dead/Treated within 21 days,"[9]; female, endoperitoneal, 500 mg/kg",2/4
same,Dead/Treated within 21 days,"[9]; female, oral, 4000 mg/kg",0/4
same,"Body Weight (m ± SEM), Termination","[9]; female, oral, 4000 mg/kg, start 201.2 ± 4.2, vehicle 189.2 ± 3.9 to 230.0 ± 10.5",238.2 ± 12.1 g
same,Dead/Treated within 21 days,"[9]; male, endoperitoneal, 500 mg/kg",1/4
same,"Body Weight (m ± SEM), Termination","[9]; male, endoperitoneal, 500 mg/kg, start 234.0 ± 6.2, vehicle 230.0 ± 5.7 to 324.0 ± 8.7",314.3 ± 10.3 g
same,Dead/Treated within 21 days,"[9]; male, oral, 4000 mg/kg",0/4
same,"Body Weight (m ± SEM), Termination","[9]; male, oral, 4000 mg/kg, start 234.5 ± 13.8, vehicle 233.7 ± 3.7 to 331.0 ± 0.5",288.7 ± 13.8 g
same,Dead/Treated within 7 days,"[9]; second experiment, female, intraperitoneal, 500 mg/kg",0/4
same,"Body weight (±SE), Termination","[9]; second experiment, female, intraperitoneal, 500 mg/kg, start 232.5 ± 5.9",218.2 ± 7.0 g
same,Dead/Treated within 7 days,"[9]; second experiment, female, oral, 4000 mg/kg",0/4
same,"Body weight (±SE), Termination","[9]; second experiment, female, oral, 4000 mg/kg, start 252.0 ± 16.6",253.5 ± 12.1 g
same,Dead/Treated within 7 days,"[9]; second experiment, male, intraperitoneal, 500 mg/kg",2/4
same,Dead/Treated within 7 days,"[9]; second experiment, male, oral, 4000 mg/kg",0/4
same,"Body weight (±SE), Termination","[9]; second experiment, male, oral, 4000 mg/kg, start 222.5 ± 6.2",231.7 ± 15.7 g
same,dysentery symptoms of diseased members,swine dysentery,the diseased members became free from dysentery symptoms
same,spread of the disease,swine dysentery,The spread of the disease was halted
same,"Average percent weight of fresh organs (m ± SE), Lung","[10]; 5 animals, NS, vehicle 0.85 ± 0.06",1.08 ± 0.09%
same,"Average percent weight of fresh organs (m ± SE), Kidneys","[10]; 5 animals, NS, vehicle 0.95 ± 0.04",1.04 ± 0.3%
same,"Average percent weight of fresh organs (m ± SE), Liver","[10]; 5 animals, vehicle 3.45 ± 0.07",4.54 ± 0.10%
same,Dead/Treated,[10]; death caused by a mistake in esophagus incannulation,1/6
same,"Body weight in g (m ± SE), Termination","[10]; start 204.1 ± 2.0, vehicle 200.0 ± 4.1 to 233.2 ± 5.1",210.6 ± 9.6 g

# Source: patent US4634702A, “Quinoxalinemethanol compounds for combatting swine dysentery and as growth promoting factors, method of preparation, and compositions containing them” (priority 1983, dated 1987)
